The values that follow come from patent publication US8048868B1, “Method of preventing preeclampsia” (Scott & White Healthcare, priority 2008, dated 2011).

For data set [1], the system named is pregnant DOCA+saline (PDS) rats. The data set can be described thus: Rat model of preeclampsia (pregnant DOCA+saline rats), RBG given daily from day 4 of pregnancy. It counts as in vivo, Sprague-Dawley rats. To be noted: RBG 15 μg/kg/min daily given to PDS rats (data not shown).
In data set [2] the test system is "preeclamptic (PDS)" rats. Conditions: RBG given when the disorder was established (Vu et al. 2006); cited from earlier work.
The test system of another data set is normal pregnant rats. The data set can be described thus: Normal pregnant rats given RBG daily from day 4 of pregnancy (NPR). It counts as in vivo, Sprague-Dawley rats. Here is the method: Female Sprague-Dawley rats (200-250 g) were obtained from Charles River Laboratories (Wilmington, Mass.) and housed in the animal facility. They were allowed free access to standard rat chow and tap water. Animal care was conducted in accordance with institutional guidelines. The rats were acclimatized for 1 week prior to being studied. The animals were mated with male Sprague-Dawley rats (Charles River Laboratories, Wilmington, Mass.) weighing 275-300 g. Pregnancy was confirmed by the presence of vaginal plugs or by examination of vaginal smears. The pregnant females were then isolated from the males. Four groups of animals were studied: normal pregnant (NP) rats given tap water ad libitum (n=10), pregnant DOCA+saline (PDS) animals (n=8) injected initially with 12.5 mg of DOCA in a depot form intraperitoneally followed by 6.5 mg on a weekly basis and whose drinking water was replaced with 0.9% saline; […] (NPR rats, n=5); and, pregnant DOCA+saline+RBG (PDSR) animals (n=8) given daily injections of RBG in a dose of 30 micrograms per kilogram body weight per day intraperitoneally beginning on day 4 of pregnancy in addition to treatment with DOCA+saline. RBG was obtained from ChromaDex (Santa Ana, Calif.) and dissolved in dimethyl sulfoxide (DMSO). Systolic blood pressure (BP) was measured by the tail-cuff method (IITC Inc., LifeScience Instruments, model 59). For each BP value reported, 3-4 readings were performed when the BP had stabilized and the mean of these values was calculated. The measurements were obtained at the following time points: prior to pregnancy (baseline), at 1-4 days, 4-7 days, 6-9 days, 8-11 days, 11-14 days, 13-16 days, 15-18 days and 18-21 days of pregnancy. At 18-21 days of pregnancy, 24-hr urine was collected in the absence of food (this was done to eliminate contamination of the urinary protein determination by any fallen food particles). Each animal was housed separately in a metabolic cage. The rats were sacrificed at 18-21 days of pregnancy and blood was drawn. The pups were counted and inspected for malformations. The 24-hr protein excretion was measured using the pyrogallol red method (Total protein Kit, Micro Pyrogallol Red Method, Sigma).
Creatinine was measured in the blood and urine on a Nova 16 Analyzer (Waltham, Mass.) and the creatinine clearance was calculated. Hematocrit was measured using a StatSpin MP Multipurpose Centrifuge (Norwood, Mass.). Statistics were performed using analysis of variance (ANOVA) and Tukey's post-hoc test.
Blood pressure results for four groups of experimental animals obtained at various time periods during gestation: NP=normal pregnant rats; PDS=pregnant animals given saline in their drinking water and injected weekly with DOCA; PDSR=rats in whom resibufogenin 30 μg/kg/day) was injected at the onset of pregnancy along with DOCA and the provision of saline as drinking water; NPR=normal pregnant animals injected daily with resibufogenin 30 μg/kg/day. See text for statistical analyses.

In data set [3] the test system is pregnant DOCA+saline (PDS) rats. The data set can be described thus: Rat model of preeclampsia (pregnant DOCA+saline rats), RBG given daily from day 4 of pregnancy. The format is in vivo, Sprague-Dawley rats. The source says: In an attempt to reproduce this situation, a rat model was developed and employed in which pregnant animals are given weekly injections of the powerful mineralocorticoid desoxycorticosterone acetate (DOCA) and whose drinking water is replaced with saline Ianosi-Irimie M, Vu H V, Whitbred J M, et al. A rat model of preeclampsia. Clin Exp Hypertens 2005; 8:605-17. These animals develop characteristic findings of human preeclampsia including hypertension, proteinuria, excessive body weight gain and IUGR. In addition, associated with their experimental condition, they excrete increased amounts of the bufodienolide, marinobufagenin (MBG) Vu H V, Ianosi-Irimie M R, Pridjian C A, et al. Involvement of marinobufagenin in a rat model of human preeclampsia. Am J NephroI 2005; 25:520-8. MBG is a cardiotonic steroid which has vasoconstrictor, natriuretic and cardiac inotropic properties Schoner W. Endogenous cardiac glycosides, a new class of steroid hormones. Eur J Biochem 2002; 269:2440-8. Furthermore, the increased urinary excretion of this compound precedes the development of hypertension and proteinuria Vu H V, Ianosi-Irimie M R, Pridjian C A, et al. Involvement of marinobufagenin in a rat model of human preeclampsia. Am J NephroI 2005; 25:520-8. […] Therefore, the purpose of the study which is presented in this communication was to determine if intervention early in pregnancy would have more beneficial effects on IUGR than the administration of RBG at a time when the rodent disorder was already established.
Female Sprague-Dawley rats (200-250 g) were obtained from Charles River Laboratories (Wilmington, Mass.) and housed in the animal facility. They were allowed free access to standard rat chow and tap water. Animal care was conducted in accordance with institutional guidelines. The rats were acclimatized for 1 week prior to being studied. The animals were mated with male Sprague-Dawley rats (Charles River Laboratories, Wilmington, Mass.) weighing 275-300 g. Pregnancy was confirmed by the presence of vaginal plugs or by examination of vaginal smears. The pregnant females were then isolated from the males. Four groups of animals were studied: normal pregnant (NP) rats given tap water ad libitum (n=10), pregnant DOCA+saline (PDS) animals (n=8) injected initially with 12.5 mg of DOCA in a depot form intraperitoneally followed by 6.5 mg on a weekly basis and whose drinking water was replaced with 0.9% saline; normal pregnant rats given RBG by daily injection in a dose of 30 micrograms per kilogram body weight per day intraperitoneally beginning on day 4 of pregnancy (NPR rats, n=5); and, pregnant DOCA+saline+RBG (PDSR) animals (n=8) given daily injections of RBG in a dose of 30 micrograms per kilogram body weight per day intraperitoneally beginning on day 4 of pregnancy in addition to treatment with DOCA+saline. RBG was obtained from ChromaDex (Santa Ana, Calif.) and dissolved in dimethyl sulfoxide (DMSO). Systolic blood pressure (BP) was measured by the tail-cuff method (IITC Inc., LifeScience Instruments, model 59). For each BP value reported, 3-4 readings were performed when the BP had stabilized and the mean of these values was calculated. The measurements were obtained at the following time points: prior to pregnancy (baseline), at 1-4 days, 4-7 days, 6-9 days, 8-11 days, 11-14 days, 13-16 days, 15-18 days and 18-21 days of pregnancy. At 18-21 days of pregnancy, 24-hr urine was collected in the absence of food (this was done to eliminate contamination of the urinary protein determination by any fallen food particles). Each animal was housed separately in a metabolic cage. The rats were sacrificed at 18-21 days of pregnancy and blood was drawn. The pups were counted and inspected for malformations. The 24-hr protein excretion was measured using the pyrogallol red method (Total protein Kit, Micro Pyrogallol Red Method, Sigma). […]

The mark [4] stands for this setting: NPR rats, RBG 30 micrograms/kg/day i.p., 18-21 days.
Setting [5] is: PDSR rats, RBG 30 micrograms/kg/day i.p., 18-21 days.

On to `C[C@]12CC[C@H](O)C[C@H]1CC[C@@H]1[C@@H]2CC[C@]2(C)[C@@H](c3ccc(=O)oc3)C[C@H]3O[C@]132` [RBG, resibufogenin], for which the “Prevention of hypertension at lower dose” value in data set [1] is reported as “failed to prevent hypertension”. Moreover, in data set [2], the Hypertension and proteinuria entry is given as “could be corrected”. Further, the IUGR entry in data set [2] is on record as “trend toward improvement”. In addition, the “Mean systolic blood pressure (tail-cuff), baseline” value with normal pregnant rats (NPR rats (n=5), prior to pregnancy (baseline)) is listed as 104±5 mmHg; in data set [3] (PDSR rats (n=8), prior to pregnancy (baseline)), 105±5 mmHg. Also, the “CCR (creatinine clearance)” value with normal pregnant rats (setting [4]) was 1.20 ± 0.49 mL/min; in data set [3] (setting [5]), 1.07 ± 0.29 mL/min. Also, the figures for the Hematocrit (with normal pregnant rats (setting [4]); in data set [3] (setting [5])) were 0.38±0.01 and 0.33±0.02, respectively. Besides, the “Protein Excretion (24-hr urine)” value is 4.6±0.8 mg/24 hr with normal pregnant rats (setting [4]) and 2.5±1.1 mg/24 hr in data set [3] (setting [5]). Also, the “Pups (average number of pups)” value stood at 11.8±1.6 with normal pregnant rats (NPR rats, RBG 30 micrograms/kg/day i.p., sacrifice at 18-21 days) and 14.6±1.3 in data set [3] (PDSR rats, RBG 30 micrograms/kg/day i.p., sacrifice at 18-21 days). Also, the “Mean systolic blood pressure (tail-cuff), final” value in the data set with normal pregnant rats (NPR rats: RBG 30 micrograms/kg/day i.p. from day 4, 18-21 days of pregnancy) came to 125±6 mmHg; in data set [3] (PDSR rats: DOCA+saline + RBG 30 micrograms/kg/day i.p. from day 4, 18-21 days of pregnancy) it was 87±6 mmHg. Besides, in the data set with normal pregnant rats (RBG 15 μg/kg/min daily, animal group not clearly stated (data not shown)), the “Effect on blood pressure at lower dose” value is recorded as “did increase blood pressure”. For the same molecule, the “Agonist effect on blood pressure” value with normal pregnant rats (given alone to normal pregnant animals) is “causes modest hypertension”. In addition, in data set [3] (early administration in gestation), the “Prevention of hypertension, proteinuria and intrauterine growth restriction (summary)” value is “prevent hypertension, proteinuria and intrauterine growth restriction”.
